Tests used:
[1] = tested on: MIN6 mouse beta insulinoma cell line; assay: MTT cell viability assay with thapsigargin (TG) challenge; type: cell-based; conditions: then TG
Experimental: MIN6 mouse beta insulinoma cell line was analyzed by MTT cell viability assay respectively. The MIN6 mouse insulinoma beta cell line is an insulinoma cell line which comes from sarcoma virus 40 transfecting non-obese diabetic mice (NOD mice) by T cells, and is a mouse insulinoma cell line having physiological characteristics of insulinoma beta cell.
MIN6 cell line was cultured in a high glucose DMEM with 15% fetal bovine serum, 50 μmol/L mercaptoethanol, 100 U/ml penicillin, and […] streptomycin. The medium was replaced the next day.
MIN6 cells were prepared for 1×10^5/ml cell liquid suspensions, and then the suspensions were incubated in a 96-well plate with 100 μl in each well. After cell attachment, the medium was replaced with a 0.2% serum medium and then the cells were cultured for 24 hours in order to keep the cells at rest. Then, 200 mg/L BSA medium and the extracts/compounds from Antrodia camphorata with a variety of predetermined concentrations (experimental groups) were added to react for 24 hours, respectively, and then thapsigargin was added to react for 24 hours. A control group was prepared by adding 100 μl medium and then incubating in a constant temperature incubator at 37° C., 5% CO2 for a period of time. 4 hours before the end of the incubating process, 20 μl MTT (0.5 mg/ml) was added into each well, the samples continued being incubated for 4 hours, and then crystalline dissolved fully with vibration. The absorbance (A) at wavelength of 570 nm was determined respectively by a reader. Then the cell viability was calculated by the following formula: the cell viability=(the average of A570 in the experimental group/the average of A570 in the control group)×100%.
Referring to FIG. 1A, the extraction from ANCA-D in different concentrations (6.25, 12.5, 25, 50, 100 ng/ml) was added into cells in each group respectively to react for 24 hours. Then, thapsigargin (TG) was added to react for 24 hours and the cell viability of each group was determined after the reaction. Thapsigargin is an endoplasmic reticulum calcium pump inhibitor which can promote depletion of calcium ions from the endoplasmic reticulum and then open store-operated channels to lead the calcium ions to increase in cells. Then, insulin secretion could be inhibited.

[2] = tested on: MIN6 cell; assay: Glucose-stimulated insulin secretion (GSIS) assay, insulin by ELISA; type: cell-based, mouse
Experimental: In order to examine the influences of the aforementioned extracts and compounds from Antrodia camphorata for insulin secretion, GSIS assay was performed with MIN6 cell. First, MIN6 cell was incubated in 1×10^5/ml concentration in a 24-well plate and a 15% FBS DMEM medium at 37° C., 5% CO2. After cell attachment, 200 mg/1 BSA medium and the extracts and compounds from Antrodia camphorata in different concentrations were added into each well to react for 24 hours. 5.5 mM/16.7 mM glucose was further added as stimulation and then insulin was determined by ELISA. In the same time, total cellular protein in each well was extracted for a calibration by determining protein concentration with BCA assay.

COC1=C(OC)[C@H](O)[C@H](C/C=C(\C)CC/C=C(\C)CC(O)C=C(C)C)[C@@H](C)C1=O (stereo partly shown) [Antrocamol LT1, 4-hydroxy-5-[9-hydroxy-3,7,11-trimethyldodeca-2,6,10-trienyl]-2,3-dimethoxy-6-methyl-cyclohex-2-enone]
MIN6 cell viability ([1]; concentrations of 250, 500, and 1000 ng/ml, compared with only-TG control, FIG. 2A): increasing tendency was more significant
MIN6 cell viability ([1]; pretreated with compound, compared with only-TG control, overall, FIG. 2A): could increase the MIN6 cell viability
insulin secretion relative to control group ([2]; pretreated with 500 ng/ml, higher glucose concentration 16.7 mM, FIG. 3C): about 2 times
insulin secretion ([2]; pretreated with 500 ng/ml, lower glucose concentration 5.5 mM, FIG. 3C): slightly increased
insulin secretion ([2]; pretreated with 1000 ng/ml and 500 ng/ml, 5.5 mM/16.7 mM glucose, FIG. 3B): slightly increasing tendency
insulin secretion ([2]; pretreated with 1000 ng/ml, higher glucose concentration 16.7 mM, FIG. 3C): more obvious
insulin secretion ([2]; pretreated with 1000 ng/ml, lower glucose concentration 5.5 mM, FIG. 3C): increasing tendency

COC1=C(OC)[C@H](OC(C)=O)[C@H](C/C=C(\C)CC/C=C(\C)CC(O)C=C(C)C)[C@@H](C)C1=O (stereo partly shown) [Antrocamol LT2, 4-acetoxy-5-[9-hydroxy-3,7,11-trimethyldodeca-2,6,10-trienyl]-2,3-dimethoxy-6-methyl-cyclohex-2-enone]
MIN6 cell viability ([1]; concentration higher than 50 ng/ml, FIG. 2B): began to slightly decrease
MIN6 cell viability ([1]; lower concentrations, especially 6.25~25 ng/ml, compared with only-TG control, FIG. 2B): significantly increase the MIN6 cell viability
effect of promoting insulin secretion ([2]; pretreated with 50 ng/ml, FIG. 3B): not observed
insulin secretion relative to control group ([2]; pretreated with 100 ng/ml, 5.5 mM/16.7 mM glucose, FIG. 3B): about 2 times

COC1=C(OC)[C@H](O)[C@H](C/C=C(\C)CC/C=C(\C)C/C=C/C(C)(C)O)[C@@H](C)C1=O [Antrocamol LT3, (4R,5R,6R)-4-hydroxy-5-[(2E,6E,9E)-11-hydroxy-3,7,11-trimethyldodeca-2,6,9-trienyl]-2,3-dimethoxy-6-methylcyclohex-2-enone]
MIN6 cell viability ([1]; concentration of 1000 ng/ml, FIG. 2C): began increasing
MIN6 cell viability ([1]; concentrations lower than 500 ng/ml, compared with only-TG group, FIG. 2C): did not significantly influence the MIN6 cell viability
effect for promoting insulin secretion ([2]; high glucose, FIG. 3B): observed in high glucose
effect for promoting insulin secretion ([2]; low glucose, FIG. 3B): not low glucose
insulin secretion ([2]; pretreated with 250 ng/ml, 5.5 mM/16.7 mM glucose, FIG. 3B): slightly tendency for promoting insulin secretion

From patent US20160038549A1, “METHOD FOR PROMOTING INSULIN SECRETION BY USING COMPOUNDS AND EXTRACTS ISOLATED FROM ANTRODIA CAMPHORATA” (priority 2014, published 2016)
